Laboratory results taken from paper PMC6600574 (Molecules, 2019).

Test: In vitro metabolism with human liver microsomes or cytosolic proteins and cofactors (UHPLC-QTOF-MS)
Assay type: in vitro ADME
Conditions: for Level of verbascoside during incubation: 10 µM
Procedure: From the incubation mixture, 450 µL acetonitrile was added to 150 µL of the samples to stop the reaction at time points of 0, 10, 20, 40, and 60 min. The CYP incubation mixture contained 20% NADPH regenerating system, whereas the glucuronidation incubation mixture contained 0.5 mM UDP-glucuronic acid with 5 mM MgCl2. The sulfonation incubation mixture contained 10 µM PAPS, […], and 500 µg cytosolic protein instead of microsomes, and the methylation incubation mixture contained 0.5 mM S-adenosylmethionine, 5 mM MgCl2, and 500 µg cytosolic protein instead of microsomes. […] The hydrolysis reaction was studied with an incubation mixture that contained 400 µg microsomal protein, or 500 µg cytosolic proteins, and 5 mM MgCl2. A sample with the absence of any enzyme was considered as the blank sample. After stopping the reactions, the samples were centrifuged for 20 min at 10,000× g and stored at −80 °C for analysis by the UHPLC-QTOF-MS system (Agilent Technologies, Waldbronn, Karlsruhe, Germany), which consisted of a 1290 LC system, a Jetstream ESI source, and a 6540 UHD accurate mass quadrupole time-of-flight (QTOF) mass spectrometry. The sample tray was kept at 4 °C during these analyses. […] Two microliters of sample were injected onto a column (Zorbax Eclipse XDB-C8, 2.1 × 100mm, 1.8 µm, Agilent Technologies, Palo Alto, CA, USA) that was kept at 50 °C. Mobile phases, delivered at 0.4 mL/min, consisted of water (eluent A) and methanol (eluent B), both containing 0.1% (v/v) of formic acid. The gradient employed was as follows: 2%→100% B (0–10 min); 100% B (10–14.5 min); 100%→2% B (14.5–14.51 min); and 2% B (14.51–16.50 min).
A Jetstream ESI source, operated in negative ionization mode, used the following conditions: drying gas temperature 325 °C and a flow of 10 L/min, sheath gas temperature 350 °C and a flow of 11 L/min, nebulizer pressure 45 psi, capillary voltage 3500 V, nozzle voltage 1000 V, fragmentary voltage 100 V, and skimmer 45 V. Nitrogen was used as the instrument gas. For data acquisition, a 2 GHz extended dynamic range mode was used from m/z 20 to m/z 1600. Data were collected in the centroid mode at an acquisition rate of 1.67 spectra/s with an abundance threshold of 150. The TOF was calibrated on a daily basis and subsequently operated at a high accuracy (<2 ppm). Continuous mass axis calibration was performed by monitoring two reference ions from an infusion solution throughout the runs. The reference ions were m/z 112.985587 and m/z 966.000725. Identification of the metabolites found in the treatments was based on accurate mass and isotope information (i.e., ratios, abundances, and spacing). The software for the identification of metabolites used was MassHunter Metabolite ID B.04.00 (Agilent Technologies, Santa Clara, CA, USA).

C[C@@H]1O[C@@H](O[C@@H]2[C@@H](O)[C@H](OCCc3ccc(O)c(O)c3)O[C@H](CO)[C@H]2OC(=O)/C=C/c2ccc(O)c(O)c2)[C@H](O)[C@H](O)[C@H]1O [Verbascoside]
Level of verbascoside during incubation (human liver cytosolic protein, PAPS, up to 60 min): decreased | Level of verbascoside during incubation (human liver cytosolic protein, S-adenosylmethionine, up to 60 min): decreased | Level of verbascoside during incubation (human liver microsomes, NADPH oxidation incubation): no decrease | Level of verbascoside during incubation (human liver microsomes, UDP-glucuronic acid, up to 60 min): decreased | Level of verbascoside during incubation (hydrolysis incubation, microsomal or cytosolic protein without cofactor): no decrease | Metabolites formed (PAPS incubation, levels increased up to 20 min): three different sulphate conjugates | Metabolites formed (S-adenosylmethionine incubation, levels increased up to 60 min): five different methylated conjugates | Metabolites formed (UDP-glucuronic acid incubation with human liver microsomes): No glucuronide conjugate
